Assay results reported in patent publication US20220072014A1, “PHARMACEUTICAL COMPOSITION WHICH COMPRISES THE COMBINATION OF A SELECTIVE INHIBITOR OF CYCLOOXYGENASE 2 AND A CARBAMATE DERIVED FROM GUAIFENESIN FOR TREATING PAIN, INFLAMMATION AND MUSCULAR CONTRACTION” (priority 2018, published 2022).

Assays:
rats (lethality) = assay: preclinical toxicity (lethality) study after oral administration; format: in vivo, male Wistar rats
From the text: In order to determine the possible antinociceptive and toxic effects of the combination, male Wistar rats [Crl:(WI)fBR] with a weight of 180-200 g were used. All experimental procedures complied with the recommendations of the Committee for Research and Ethical Issues of the International Association for the Study of Pain (Covino et al., 1980) and the Guidelines on Ethical Standards for Investigations of Experimental Pain in Animals (Zimmermann 1983). The number of experimental animals was kept to a minimum (6 animals per experimental point for antinociceptive effects and 10 animals per experimental point for adverse effects:lethality). The rats were kept in a room with alternating light/darkness cycles. For twelve hours before the antinociception experiments rats fasted but had free access to water. All experiments were performed during the light phase of the light/darkness cycles.
The lethal toxic effects after single administrations were determined in 3 post-treatment timepoints, 24, 48 and 72 hours, in order to determine the corresponding DRC (death).

[1] = weight gain of experimental animals; format: in vivo, rats; settings: celecoxib doses used for the chronic treatment DRC, alone or combined
[2] = test system: gout arthritis induced by intra-articular uric acid; assay: pain-induced functional impairment in the rat model (PIFIR model), uric acid-induced gout arthritis; format: in vivo, male Wistar rats
Description: All experiments were performed during the light phase of the light/darkness cycles.

[3] = test system: arthrosis and rheumatoid arthritis (RA) patients; settings: patients without concomitant ASA; cited from earlier work
[4] = FDA prescribing information; cited from earlier work
[5] = oral route, cited from earlier work

Row | SMILES | dose at which the lethality DRC begins (rats (lethality); 24 hours) [mg/kg] | effect on normal weight gain [1] | maximal effect (% FI) ([2]; 2.5 h after oral administration, celecoxib 1,000 mg/Kg alone or with methocarbamol 50 mg/Kg) [%] | effect four hours after being administered (% FI) ([2]; 4 h after oral administration, celecoxib 1,000 mg/Kg alone or with methocarbamol 50 mg/Kg) [%] | ED50 ([2]; Rattus norvegicus, po, read-out: ED50 (antinociceptive dose-response curve)) [mg/kg] | peak antinociceptive effectiveness (AUC of temporal course, global antinociceptive effect) ([2]; oral, acute administration, 4-hour assessment, most efficacious dose celecoxib 1,000 mg/Kg (combination with methocarbamol 50 mg/Kg)) | GI bleeding incidence [3] | estimated effective half-life [4] [h] | dose causing lethality effects within 24 hours (rats (lethality)) | time to peak action ([5]; humans) [h] | time to reach active levels [5] [min] | antinociceptive effect during the assessment period ([2]; methocarbamol 50 mg/Kg alone, oral, 4-hour assessment)
1 | Cc1ccc(-c2cc(C(F)(F)F)nn2-c2ccc(S(N)(=O)=O)cc2)cc1 [celecoxib, 4-[5-(4-methylphenyl)-3-(trifluoromethyl)-1H-pyrazol-1-yl]benzenesulfonamide] | 17800 | does not modify the normal weight gain | 63.6±9.9 | 62.5±7.0 | 51.1 | 191.9±27.2 area units (au) | lower GI bleeding incidence | 8 to 12 |  |  |  | 
2 | COc1ccccc1OCC(O)COC(N)=O (stereo not drawn) [methocarbamol, 3-(2-methoxyphenoxy)-1,2-propanediol 1-carbamate] |  |  |  |  |  |  |  |  | 1,000 mg/Kg | ≤ 2 | ≤ 30 | did not produce any antinociceptive effect whatsoever
